From publication PMC4965013, “Open Source Drug Discovery with the Malaria Box Compound Collection for Neglected Diseases and Beyond” (PLoS Pathogens, 2016)
Where “and” joins values, the source holds several entries; their conditions need not be identical. Equal entries are not always repeated.

What was measured:
PfA-M17 = target: T1, PfA-M17 (Plasmodium falciparum, UniProt Q8IL11); test: rPfA-M17 aminopeptidase activity (Florent); format: biochemical, P. falciparum; conditions: for effect on rPfA-M17 in words: 100µM
T1 construct: residues 84-605 of native Plasmodium falciparum leucyl aminopeptidase PfA-M17 (PlasmoDB PF3D7_1446200); hexahistidine (N); TEV cleavage site (N); made in house; host or cells: Escherichia coli BL21 (DE3) Rosetta 2
T1 sequence (Q8IL11 84-605): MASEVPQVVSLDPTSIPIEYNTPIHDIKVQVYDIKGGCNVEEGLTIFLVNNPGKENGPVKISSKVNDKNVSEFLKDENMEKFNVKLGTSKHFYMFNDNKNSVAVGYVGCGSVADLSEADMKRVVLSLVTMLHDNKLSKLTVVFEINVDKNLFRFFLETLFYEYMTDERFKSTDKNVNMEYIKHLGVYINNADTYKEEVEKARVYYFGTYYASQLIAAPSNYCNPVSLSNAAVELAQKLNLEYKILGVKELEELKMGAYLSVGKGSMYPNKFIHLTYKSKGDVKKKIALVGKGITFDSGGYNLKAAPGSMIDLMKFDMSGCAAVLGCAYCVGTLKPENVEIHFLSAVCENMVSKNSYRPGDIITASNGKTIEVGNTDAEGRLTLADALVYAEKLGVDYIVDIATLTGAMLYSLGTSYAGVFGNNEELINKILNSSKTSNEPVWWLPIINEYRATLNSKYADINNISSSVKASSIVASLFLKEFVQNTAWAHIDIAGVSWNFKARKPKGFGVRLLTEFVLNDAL

PfA-M1 = target: T2, PfA-M1 (Plasmodium falciparum, UniProt O96935); test: rPfA-M1 aminopeptidase activity (Florent); format: biochemical, P. falciparum; conditions: for effect on rPfA-M1 in words: 100µM
T2 construct: encoding residues 192-1085 of native PfA-M1; hexahistidine (N); TEV cleavage site (ENLYFQS) (N); made in house; host or cells: Escherichia coli BL21 (DE3) Rosetta 2
T2 sequence (O96935 192-1085): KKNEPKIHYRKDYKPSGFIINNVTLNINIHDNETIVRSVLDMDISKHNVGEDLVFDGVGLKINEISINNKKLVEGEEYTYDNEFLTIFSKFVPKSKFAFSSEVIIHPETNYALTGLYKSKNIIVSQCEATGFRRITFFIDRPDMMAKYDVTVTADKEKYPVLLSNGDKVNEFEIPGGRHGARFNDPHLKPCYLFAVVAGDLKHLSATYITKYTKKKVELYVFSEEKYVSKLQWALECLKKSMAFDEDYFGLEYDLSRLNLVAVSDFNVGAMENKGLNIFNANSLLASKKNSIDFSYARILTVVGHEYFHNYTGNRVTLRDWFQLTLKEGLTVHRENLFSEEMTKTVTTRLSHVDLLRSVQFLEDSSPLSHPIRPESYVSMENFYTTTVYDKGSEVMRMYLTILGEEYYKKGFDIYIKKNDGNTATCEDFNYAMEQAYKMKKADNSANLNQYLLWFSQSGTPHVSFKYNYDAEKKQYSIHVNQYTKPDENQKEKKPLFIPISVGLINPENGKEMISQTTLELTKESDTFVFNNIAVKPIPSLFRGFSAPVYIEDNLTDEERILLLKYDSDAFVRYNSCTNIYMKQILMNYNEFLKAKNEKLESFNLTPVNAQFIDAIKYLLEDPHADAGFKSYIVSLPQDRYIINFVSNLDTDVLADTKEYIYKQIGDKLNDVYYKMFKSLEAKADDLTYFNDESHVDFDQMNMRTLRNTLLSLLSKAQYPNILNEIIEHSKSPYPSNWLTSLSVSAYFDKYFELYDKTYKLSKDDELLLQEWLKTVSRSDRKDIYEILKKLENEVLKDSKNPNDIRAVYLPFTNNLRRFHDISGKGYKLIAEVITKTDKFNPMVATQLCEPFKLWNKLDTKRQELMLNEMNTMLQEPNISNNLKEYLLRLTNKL

Toxoplasma gondii TS-4 = conditions: ref [46]; cited from earlier work
[1] = system: Neospora caninum Nc-1 tachyzoites; test: Neospora caninum Nc-Betagal proliferation; format: cell-based
Atg8-Atg3 = system: Atg8-Atg3; design: method as in ref [38] (a number printed in a supplementary file, which may have a reference list of its own: not looked up in the article's list); conditions: ref [38]; cited from earlier work
[2] = system: P. falciparum 3D7 trophozoites; test: Metabolomic fingerprint profiling LC-MS; format: cell-based, Plasmodium falciparum; design: UDP-D-glucose / ADP-D-glucose: unit not given here
P. falciparum = test: EC50 listed in S2 Table Metabolomics (used to set the concentration tested); format: cell-based; conditions: Plasmodium falciparum; EC50 used for Factor_XEC50 in metabolomics; read-out: EC50_nM
T. b. brucei Squib 427 = conditions: Run 1 and Run 2; ref [88]; read-out: T. brucei brucei IC50 positive control; cited from earlier work
[3] = system: Trypanosoma brucei rhodesiense STIB 900; conditions: Run 1 and Run 2; ref [88]; read-out: T. rhodesiense IC50 positive control; cited from earlier work
T. cruzi Tulahuen = conditions: ref [84]; read-out: Trypanosoma cruzi Tulahuen intracellular amastigotes in MRC5 cell line EC50; cited from earlier work
[4] = system: Schistosoma mansoni adult males; test: S. mansoni adult phenotypic and motility screen Caffrey
[5] = system: Schistosoma mansoni schistosomula (somules); test: S. mansoni somules phenotypic screen Caffrey; conditions: 2.5 µM, 48 h
[6] = system: Leishmania infantum MHOM/MA/BE/67; conditions: Run 1 and Run 2; ref [88]; read-out: L. infantum IC50 positive control; cited from earlier work
[7] = metabolite level change after treatment

COc1ccc(Nc2cc(C)nc(NCc3ccccc3)n2)cc1 [MMV006825]
effect on rPfA-M17 in words (PfA-M17): only moderately inhibiting | effect on rPfA-M1 in words (PfA-M1): particularly effective

CCCCN(CCCC)S(=O)(=O)c1ccc(NC(=O)c2ccco2)cc1 [MMV007881]
non-toxic compounds active against T. gondii (Toxoplasma gondii TS-4): active

CCCc1c(C)nc2ccc(Br)cc2c1O [MMV666095]
non-toxic compounds active against T. gondii (Toxoplasma gondii TS-4): active

O=C(Nc1ccc(N2CCN(Cc3ccccc3)CC2)cc1)c1cccs1 [MMV019670]
non-toxic N. caninum actives [1]: non-toxic N. caninum actives

CCOc1ccc2cc(-c3nn(CC4CCN(C)CC4)c4ncnc(N)c34)ccc2c1 [BKI-1294, reference compound]
N. caninum proliferation, positive control ([1]; 1µM): complete block of proliferation

Clc1ccc2c(N3CCCC3)ccnc2c1 [MMV007363]
non-toxic compounds active against T. gondii (Toxoplasma gondii TS-4): active

COc1ccc(C2c3ccc4ccccc4c3Oc3ncn(CCCn4ccnc4)c(=N)c32)cc1OC (centres unmarked) [MMV667490]
effect on rPfA-M17 in words (PfA-M17): only moderately inhibiting | effect on rPfA-M1 in words (PfA-M1): particularly effective

O=C(Nc1nc(-c2ccccn2)cs1)c1ccccc1Br [MMV665909]
PPI inhibitors of Atg8-Atg3 interaction (Atg8-Atg3): PPI inhibitors

CN(C)c1ccc(C=Cc2nc(=O)c3ccccc3o2)cc1 [MMV006309]
Acetyllysine ([2]; S2 Table Metabolomics, metabolite Acetyllysine): -0.06229 | N-acetyl-L-ornithine ([2]; S2 Table Metabolomics, metabolite N-acetyl-L-ornithine): 0.06709 | N-carbamoyl-L-aspartate ([2]; S2 Table Metabolomics, metabolite N-carbamoyl-L-aspartate): 2.985 | NADPH ([2]; S2 Table Metabolomics, metabolite NADPH): -0.04695 | dAMP ([2]; S2 Table Metabolomics, metabolite dAMP): -0.4457 | dCMP ([2]; S2 Table Metabolomics, metabolite dCMP): 0.07949 | dTDP ([2]; S2 Table Metabolomics, metabolite dTDP): -0.6452 | dTMP ([2]; S2 Table Metabolomics, metabolite dTMP): -0.3602 | dTTP ([2]; S2 Table Metabolomics, metabolite dTTP): -0.2468 | dihydroorotate ([2]; S2 Table Metabolomics, metabolite dihydroorotate): 3.691 | orotate ([2]; S2 Table Metabolomics, metabolite orotate): -0.6105 | DLH ([2]; S2 Table Metabolomics, peptide DLH): -0.3184 | DLS/SDL/SID ([2]; S2 Table Metabolomics, peptide DLS/SDL/SID): -0.2456 | PD ([2]; S2 Table Metabolomics, peptide PD): 0.4341 | PEE ([2]; S2 Table Metabolomics, peptide PEE): -0.1161 | PVNF ([2]; S2 Table Metabolomics, peptide PVNF): -0.4902 | 3-phosphoglycerate ([2]; metabolite 3-phosphoglycerate, S2 Table Metabolomics): -0.1315 | ADP-D-glucose ([2]; metabolite ADP-D-glucose, S2 Table Metabolomics): 0.1572 | ATP ([2]; metabolite ATP, S2 Table Metabolomics): 0.2918 | CDP ([2]; metabolite CDP, S2 Table Metabolomics, change in metabolite level after compound treatment): -0.5525 | D-sedoheptulose-1/7-phosphate ([2]; metabolite D-sedoheptulose-1/7-phosphate, S2 Table Metabolomics, change in metabolite level after compound treatment): 0.4312 | FAD ([2]; metabolite FAD, S2 Table Metabolomics): 0.6491 | GMP ([2]; metabolite GMP, S2 Table Metabolomics, change in metabolite level after compound treatment): 2.281 | NAD+ ([2]; metabolite NAD+, S2 Table Metabolomics): 0.2407 | NADP+ ([2]; metabolite NADP+, S2 Table Metabolomics): 0.05923 | Octoluse Bisphosphate ([2]; metabolite Octoluse Bisphosphate, S2 Table Metabolomics, change in metabolite level after compound treatment): 0.03854 | Pyroglutamic acid ([2]; metabolite Pyroglutamic acid, S2 Table Metabolomics): -0.251 | UDP-D-glucose ([2]; metabolite UDP-D-glucose, S2 Table Metabolomics): 0.2158 | UDP-D-glucuronate ([2]; metabolite UDP-D-glucuronate, S2 Table Metabolomics): 0.1905 | UDP-N-acetyl-glucosamine ([2]; metabolite UDP-N-acetyl-glucosamine, S2 Table Metabolomics): 0.2147 | UDP ([2]; metabolite UDP, S2 Table Metabolomics, change in metabolite level after compound treatment): -0.5733 | UMP ([2]; metabolite UMP, S2 Table Metabolomics, change in metabolite level after compound treatment): -0.8586 | UTP ([2]; metabolite UTP, S2 Table Metabolomics, change in metabolite level after compound treatment): -0.4965 | a-ketoglutarate ([2]; metabolite a-ketoglutarate, S2 Table Metabolomics): -0.2334 | citrate/isocitrate ([2]; metabolite citrate/isocitrate, S2 Table Metabolomics, change in metabolite level after compound treatment): -0.148 | cytidine ([2]; metabolite cytidine, S2 Table Metabolomics): 0.1715 | dATP ([2]; metabolite dATP, S2 Table Metabolomics): 0.5165 | dGMP/AMP ([2]; metabolite dGMP/AMP, S2 Table Metabolomics, change in metabolite level after compound treatment): -0.4086 | fumarate ([2]; metabolite fumarate, S2 Table Metabolomics, change in metabolite level after compound treatment): 0.4652 | glucose-1/6-phosphate ([2]; metabolite glucose-1/6-phosphate, S2 Table Metabolomics, change in metabolite level after compound treatment): 0.457 | glycerate ([2]; metabolite glycerate, S2 Table Metabolomics, change in metabolite level after compound treatment): 0.3869 | guanine ([2]; metabolite guanine, S2 Table Metabolomics, change in metabolite level after compound treatment): 0.4747 | guanosine ([2]; metabolite guanosine, S2 Table Metabolomics, change in metabolite level after compound treatment): 0.5548 | hypoxanthine ([2]; metabolite hypoxanthine, S2 Table Metabolomics): -0.07215 | indole ([2]; metabolite indole, S2 Table Metabolomics): -0.02242 | inosine ([2]; metabolite inosine, S2 Table Metabolomics, change in metabolite level after compound treatment): 0.08258 | 2_3-Diphosphoglyceric acid [2, 7]: 0.3655 | 4-phosphopantothenate [2, 7]: -0.02209 | 6-phospho-D-gluconate [2, 7]: 0.4028 | FMN [2, 7]: 0.2378 | IMP [2, 7]: -0.05126 | Pyrophosphate [2, 7]: 0.2614 | Sedoheptoluse bisphosphate [2, 7]: 0.2668 | cyclic-AMP [2, 7]: 0.09044 | glutathione disulfide [2, 7]: 0.5032 | lactate [2, 7]: 0.1016 | myo-inositol [2, 7]: 0.2436 | nicotinate ([2]; metabolite nicotinate, S2 Table Metabolomics): 0.1263 | ornithine ([2]; metabolite ornithine, S2 Table Metabolomics): -0.005843 | phosphoenolpyruvate ([2]; metabolite phosphoenolpyruvate, S2 Table Metabolomics): -0.2041 | pyruvate ([2]; metabolite pyruvate, S2 Table Metabolomics, change in metabolite level after compound treatment): -0.06331 | ribose-phosphate ([2]; metabolite ribose-phosphate, S2 Table Metabolomics): -0.02548 | sarcosine/alanine ([2]; metabolite sarcosine/alanine, S2 Table Metabolomics, change in metabolite level after compound treatment): 0.5971 | sn-glycerol-3-phosphate ([2]; metabolite sn-glycerol-3-phosphate, S2 Table Metabolomics): -0.04439 | succinate/methylmalonic acid ([2]; metabolite succinate/methylmalonic acid, S2 Table Metabolomics, change in metabolite level after compound treatment): 0.1372 | uridine ([2]; metabolite uridine, S2 Table Metabolomics, change in metabolite level after compound treatment): -0.2519 | xanthosine ([2]; metabolite xanthosine, S2 Table Metabolomics, change in metabolite level after compound treatment): 0.3479 | non-toxic N. caninum actives [1]: non-toxic N. caninum actives | EC50 (P. falciparum): 51.5 nM

CC(C)C[C@H](NC(=O)[C@@H](O)[C@H](N)Cc1ccccc1)C(=O)O [bestatin, reference compound]
inhibition at 100 µM (PfA-M17): 100% | inhibition at 100 µM (PfA-M1): 57%

Cc1ccc(NC(=O)Nc2cccc(Cl)c2)cc1F [MMV000911]
non-toxic N. caninum actives [1]: non-toxic N. caninum actives

Cc1ccc(C(=O)Nc2ccc(S(=O)(=O)O)c3cc(S(=O)(=O)O)cc(S(=O)(=O)O)c23)cc1NC(=O)c1cccc(NC(=O)Nc2cccc(C(=O)Nc3cc(C(=O)Nc4ccc(S(=O)(=O)O)c5cc(S(=O)(=O)O)cc(S(=O)(=O)O)c45)ccc3C)c2)c1 [Suramin, reference compound]
IC50 (T. b. brucei Squib 427): 60 nM and 50 nM | IC50 [3]: 70 nM and 50 nM

CN(C)CCNc1cc(-c2ccccc2)nc2ccccc12 [MMV006704]
non-toxic compounds active against T. gondii (Toxoplasma gondii TS-4): active

CCOc1cccc2sc(N(Cc3cccnc3)C(=O)C3CCCCC3)nc12 [MMV001230]
EC50 (T. cruzi Tulahuen): 156 nM

O=C(Nc1ccc([N+](=O)[O-])cc1Cl)c1cc(Cl)ccc1O [niclosamide]
S. mansoni adult males 48hr motility assay ([4]; 48 h, 5µM): zero | S. mansoni adult males visual tox scale, 0 = none, 4=most damaged ([4]; 48hr at 5 µM): 4 | somule severity score [5]: 4

CCOc1ccccc1NC(=O)CN1CCN(C(=O)c2ccco2)CC1 [MMV007791]
non-toxic compounds active against T. gondii (Toxoplasma gondii TS-4): active

CN(C)c1ccc(-c2nc3cc(N)ccc3[nH]2)cc1 [MMV666102]
effect on rPfA-M1 in words (PfA-M1): particularly effective

CCCCCCCCCCCCCCCCOP(=O)([O-])OCC[N+](C)(C)C [Miltefosine, reference compound]
IC50 [6]: 7100 nM and 9000 nM
